Measured values reported in patent US20120196899A1, “METHODS AND PRODUCTS FOR TREATING INFLAMMATION” (Rock Creek Pharmaceuticals, Inc., priority 2010, published 2012).
“And” between values parts separate entries of the source, which are not always exact repeats. Equal entries are not always repeated.

Experiments:
nAChR α4/β2 = molecular target: T1, nAChR α4/β2 (Homo sapiens, UniProt P17787+P43681); type: cell-based; details: 100 μM Ach + 0.3 μM epibatidine; not concentration-dependent, IC50 not determinable
T1 construct: host or cells: HEK293 cells, transient transfection
Protocol: The following three (3) channels were evaluated: • 1. nAChR α3/β4 (encoded by the human CHRNA3 and CHRNB4 gene and stably expressed in CHO cells); • 2. nAChR α4/β2 (CHRNA4 and CHRNB2 gene and transiently expressed in HEK293 cells); and • 3. nAChR α7 (encoded by the human nicotinic α7 gene coexpressed in CHO cells with the chaperone RIC-3 encoded by the human RIC3 gene).
The ability of each test article to act as an agonist, a positive allosteric modulator or antagonist of three nAChR receptor channels was evaluated in the presence of 0.1 atropine. Both test articles were evaluated for responses on each nAChR channel at eight (8) concentrations: 0.3, 1, 3, 10, 30, 100, 300, and 1000 μM (n=4 for each concentration).
HEK293 or CHO cells were transiently or stably transfected with the appropriate human ion channel cDNAs. Stable transfectants were selected by coexpression with the antibiotic-resistance gene(s) incorporated into the expression plasmid(s). […]
For FLIPR TETRA™ assay, cells were plated in 384-well black wall, flat clear bottom microtiter plates (Type: BD Biocoat Poly-D-Lysine Multiwell Cell Culture Plate) at 20,000 to 30,000 cells per well (384-well plate). Cells were incubated at 37° C. overnight or until the cells reached a sufficient density in the wells (near confluent monolayer) to use in fluorescence assays. […]

[1] = Physical signs after single i.v. dose (Example 3); type: in vivo, Sprague-Dawley rats; details: nicotine 0.4 mg/kg single i.v.; all males and two females
Protocol: Four aliquots of each dose level formulation were collected and stored at −80° C. The test compound, corresponding dose level, number of animals, and sample collection times for Phase I of the study are shown in Table 3. The test compound, corresponding dose level, number of animals, and sample collection times for Phase II of the study are shown in Table 4. The physical signs of each animal were monitored following administration of the test compound.

[2] = Body weights, weight gain and food consumption over 14 days after single i.v. dose; type: in vivo, Sprague-Dawley rats; details: for Mean food consumption/day / Mean weigth increase by day 14 / day 13 B.W. / day 14 B.W. / B.W. day 1 / B.W. day 2 / B.W. day 3 / B.W. day 4 / B.W. day 5 / B.W. day 6 / B.W. day 7 / B.W. day 8 / B.W. day 9 / B.W. day 10 / B.W. day 11 / B.W. day 12: nicotine 0.75 mg/kg single i.v.; for day 13 B.W. / day 14 B.W. / B.W. day 1 / B.W. day 2 / B.W. day 3 / B.W. day 4 / B.W. day 5 / B.W. day 6 / B.W. day 7 / B.W. day 8 / B.W. day 9 / B.W. day 10 / B.W. day 11 / B.W. day 12 / Average Daily Food Consumption per Rat: tartrate; for B.W. day 1 / B.W. day 2 / B.W. day 3 / B.W. day 4 / B.W. day 5 / B.W. day 6 / B.W. day 7 / B.W. day 8 / B.W. day 9 / B.W. day 10 / B.W. day 11 / B.W. day 12: individual animals; for Average Daily Food Consumption per Rat: nicotine 0.75 mg/kg, per cage (cage 1, 2)
Protocol: Body weight and food consumption was measured daily for 14 days. On day 15, urine was collected on all surviving animals. The animals were euthanized and bled via cardiac puncture, and blood was collected for analysis. Tissues were collected, weighed, evaluated for gross abnormalities, and stored in 10% neutral-buffered formalin.
All animals were observed daily.

[3] = Coagulation parameters (aPTT, PT), day 15; type: in vivo, Sprague-Dawley rats; details: for ACTIVATED PARTIAL THROMBOPLASTIN TIME: 0.75 mg/kg, group mean; for ACTIVE PARTIAL THROMBOPLASTIN TIME: nicotine 0.75 mg/kg, individual animals, tartrate
Description: On day 15, urine was collected on all surviving animals for urinalysis. The animals were euthanized and bled via cardiac puncture. Blood was collected for hematology, clinical chemistry, and coagulation analysis. Tissues were collected, weighed, and stored in 10% neutral-buffered formalin for possible future analysis.
Individual values for the coagulation parameters activated partial thromboplastin (aPTT) and prothrombin times (PT) for each animal are listed in Table 34 (normal ranges, Table 30). These are summarized in terms of descriptive statistics in Table 25.

T1 sequence (P17787 26-502): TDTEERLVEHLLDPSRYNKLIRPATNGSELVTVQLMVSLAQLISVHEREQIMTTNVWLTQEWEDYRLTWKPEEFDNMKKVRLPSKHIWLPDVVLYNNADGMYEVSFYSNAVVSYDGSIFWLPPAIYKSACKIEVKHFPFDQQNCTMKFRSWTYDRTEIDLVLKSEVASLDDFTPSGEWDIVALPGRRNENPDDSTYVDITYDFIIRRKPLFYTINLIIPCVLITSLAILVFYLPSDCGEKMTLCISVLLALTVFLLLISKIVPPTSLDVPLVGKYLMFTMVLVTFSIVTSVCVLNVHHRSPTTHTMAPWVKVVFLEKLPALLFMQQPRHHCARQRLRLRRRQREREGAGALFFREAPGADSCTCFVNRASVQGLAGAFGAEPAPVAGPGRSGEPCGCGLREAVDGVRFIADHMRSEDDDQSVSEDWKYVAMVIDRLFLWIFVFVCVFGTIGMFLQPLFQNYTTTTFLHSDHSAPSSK
T1 sequence (P43681 29-627): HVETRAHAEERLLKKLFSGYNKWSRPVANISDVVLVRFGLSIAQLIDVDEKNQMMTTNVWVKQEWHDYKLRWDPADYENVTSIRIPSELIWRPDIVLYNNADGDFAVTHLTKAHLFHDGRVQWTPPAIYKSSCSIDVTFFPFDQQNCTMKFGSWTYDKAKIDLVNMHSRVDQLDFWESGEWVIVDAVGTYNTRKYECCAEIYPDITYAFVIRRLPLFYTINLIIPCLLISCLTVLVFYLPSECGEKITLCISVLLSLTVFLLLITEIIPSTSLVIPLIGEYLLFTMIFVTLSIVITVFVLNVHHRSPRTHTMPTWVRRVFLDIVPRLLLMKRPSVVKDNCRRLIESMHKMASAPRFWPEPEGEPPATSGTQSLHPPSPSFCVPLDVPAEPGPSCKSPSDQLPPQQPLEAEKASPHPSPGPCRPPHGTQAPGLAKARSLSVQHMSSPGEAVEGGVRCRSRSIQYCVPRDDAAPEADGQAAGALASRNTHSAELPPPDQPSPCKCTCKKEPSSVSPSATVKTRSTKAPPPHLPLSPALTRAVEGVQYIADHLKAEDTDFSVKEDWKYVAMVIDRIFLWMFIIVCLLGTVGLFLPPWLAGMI

## CN1CCCC1c1cccnc1.O=C(O)C(O)C(O)C(=O)O (single isomer, unassigned; (-)) [Nicotine, (−) Nicotine hydrogen tartrate, reference compound]
nAChR α4/β2
  inhibition of receptor activity: inhibited receptor activity
[1]
  physical signs: experienced tremors immediately post dose
[2]; Female
  Mean food consumption/day: 20.6 g
  Mean weigth increase by day 14: 40.8 g
[2]; Male
  Mean food consumption/day: 26.4 g
  Mean weigth increase by day 14: 98.5 g
[2]; individual female rats
  day 13 B.W.: 232.6 g and 251.8 g and 227.3 g
  day 14 B.W.: 230.4 g and 249 g and 229 g
[2]; individual male rats
  day 13 B.W.: 330 g and 312.3 g and 292.4 g and 299.4 g
  day 14 B.W.: 339.2 g and 316.1 g and 297.6 g and 305 g
[2]; day 1, female rats
  B.W. day 1: 191.6 g and 206.1 g and 192.8 g
[2]; day 1, male rats
  B.W. day 1: 227 g and 228 g and 223 g and 219 g
[2]; day 2, female rats
  B.W. day 2: 190.5 g and 213.4 g and 195.7 g
[2]; day 2, male rats
  B.W. day 2: 234.9 g and 239.1 g and 229.5 g and 229.1 g
[2]; day 3, female rats
  B.W. day 3: 198 g and 217.1 g and 199.1 g
[2]; day 3, male rats
  B.W. day 3: 243 g and 245.1 g and 241.1 g and 238.4 g
[2]; day 4, female rats
  B.W. day 4: 207.8 g and 223.8 g and 205.6 g
[2]; day 4, male rats
  B.W. day 4: 260.5 g and 263.4 g and 257.6 g and 252.9 g
[2]; day 5, female rats
  B.W. day 5: 212.3 g and 226.3 g and 206.4 g
[2]; day 5, male rats
  B.W. day 5: 272.1 g and 269.1 g and 260.7 g and 258.7 g
[2]; day 6, female rats
  B.W. day 6: 207 g and 228.9 g and 205.5 g
[2]; day 6, male rats
  B.W. day 6: 259 g and 275.4 g and 270 g and 262.8 g
[2]; day 7, female rats
  B.W. day 7: 213 g and 240.1 g and 218.3 g
[2]; day 7, male rats
  B.W. day 7: 279.9 g and 295.8 g and 288 g and 277.8 g
[2]; day 8, female rats
  B.W. day 8: 218 g and 237.4 g and 217.4 g
[2]; day 8, male rats
  B.W. day 8: 284 g and 293.7 g and 285.6 g and 278 g
[2]; day 9, female rats
  B.W. day 9: 219.1 g and 236.4 g and 213.2 g
[2]; day 9, male rats
  B.W. day 9: 274.9 g and 303.5 g and 285.6 g and 274.6 g
[2]; day 10, female rats
  B.W. day 10: 221.8 g and 240.1 g and 220.5 g
[2]; day 10, male rats
  B.W. day 10: 286.1 g and 314.2 g and 301 g and 283.4 g
[2]; day 11, female rats
  B.W. day 11: 222.8 g and 244.5 g and 226 g
[2]; day 11, male rats
  B.W. day 11: 292.2 g and 317.7 g and 300.1 g and 291.5 g
[2]; day 12, female rats
  B.W. day 12: 232.1 g and 248.9 g and 227.7 g
[2]; day 12, male rats
  B.W. day 12: 290.7 g and 329.5 g and 303 g and 287.3 g
[2]; female, day 1
  Average Daily Food Consumption per Rat: 23.7 grams and 14.8 grams
[2]; female, day 2
  Average Daily Food Consumption per Rat: 18.4 grams and 24.9 grams
[2]; female, day 3
  Average Daily Food Consumption per Rat: 22.2 grams and 22.3 grams
[2]; female, day 4
  Average Daily Food Consumption per Rat: 19.4 grams and 15.8 grams
[2]; female, day 5
  Average Daily Food Consumption per Rat: 18.7 grams and 16.2 grams
[2]; female, day 6
  Average Daily Food Consumption per Rat: 20.0 grams and 17.2 grams
[2]; female, day 7
  Average Daily Food Consumption per Rat: 19.4 grams and 21.7 grams
[2]; female, day 8
  Average Daily Food Consumption per Rat: 20.1 grams and 20.6 grams
[2]; female, day 9
  Average Daily Food Consumption per Rat: 24.4 grams and 21.5 grams
[2]; female, day 10
  Average Daily Food Consumption per Rat: 22.6 grams and 20.4 grams
[2]; female, day 11
  Average Daily Food Consumption per Rat: 20.4 grams and 20.3 grams
[2]; female, day 12
  Average Daily Food Consumption per Rat: 22.5 grams and 21.7 grams
[2]; female, day 13
  Average Daily Food Consumption per Rat: 23.7 grams and 21.2 grams
[2]; female, day 14
  Average Daily Food Consumption per Rat: 24.4 grams and 19.6 grams
[2]; males, day 1
  Average Daily Food Consumption per Rat: 20.8 grams and 19.3 grams
[2]; males, day 2
  Average Daily Food Consumption per Rat: 26.2 grams and 23.5 grams
[2]; males, day 3
  Average Daily Food Consumption per Rat: 26.6 grams and 26.2 grams
[2]; males, day 4
  Average Daily Food Consumption per Rat: 26.2 grams and 23.7 grams
[2]; males, day 5
  Average Daily Food Consumption per Rat: 25.1 grams and 21.9 grams
[2]; males, day 6
  Average Daily Food Consumption per Rat: 23.8 grams and 25.9 grams
[2]; males, day 7
  Average Daily Food Consumption per Rat: 26.5 grams and 27.9 grams
[2]; males, day 8
  Average Daily Food Consumption per Rat: 24.0 grams and 28.2 grams
[2]; males, day 9
  Average Daily Food Consumption per Rat: 27.3 grams and 26.1 grams
[2]; males, day 10
  Average Daily Food Consumption per Rat: 29.6 grams and 30.9 grams
[2]; males, day 11
  Average Daily Food Consumption per Rat: 30.1 grams and 29.1 grams
[2]; males, day 12
  Average Daily Food Consumption per Rat: 26.5 grams and 23.4 grams
[2]; males, day 13
  Average Daily Food Consumption per Rat: 31.9 grams and 28.4 grams
[2]; males, day 14
  Average Daily Food Consumption per Rat: 32.7 grams and 26.4 grams
[3]; female
  ACTIVATED PARTIAL THROMBOPLASTIN TIME: 16.9 s
[3]; male
  ACTIVATED PARTIAL THROMBOPLASTIN TIME: 16.3 s
[3]; nicotine 0.75 mg/kg single i.v., male and female, day 15
  aPTT versus vehicle control: aPTT was significantly lower relative to the vehicle control group
[3]; female rats
  ACTIVE PARTIAL THROMBOPLASTIN TIME: 18.7 s and 15 s
[3]; male rats
  ACTIVE PARTIAL THROMBOPLASTIN TIME: 15 s and 16.3 s and 17.6 s and 16.2 s
